# Measurements from patent US20230063230A1, “NURR1 RECEPTOR MODULATORS” (priority 2019, published 2023).
# Tests used:
# Nurr1 [1] = target: T1, Nurr1 (Homo sapiens, UniProt P43354); assay: Binding SPR
# Nurr1 [2] = target: T1, Nurr1; assay: Binding MST
# Vmat2 in MN9D = assay: cells; format: cell-based; conditions: cpds tested at 10 μM, analogs of compound 87, read-out: qPCR MN9D Vmat2
# Nurr1 in MN9D = assay: qPCR MN9D Nurr1; format: cell-based; conditions: cpds tested at 10 μM, analogs of compound 87
# T1 sequence (P43354 360-595 limits assumed): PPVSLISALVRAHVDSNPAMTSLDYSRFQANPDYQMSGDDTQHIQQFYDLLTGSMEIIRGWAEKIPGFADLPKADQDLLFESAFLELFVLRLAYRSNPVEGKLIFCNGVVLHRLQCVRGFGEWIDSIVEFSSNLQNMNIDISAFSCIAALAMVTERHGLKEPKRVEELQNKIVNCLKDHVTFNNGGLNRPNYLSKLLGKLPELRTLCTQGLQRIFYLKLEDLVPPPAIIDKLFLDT
Compound,Binding SPR (Nurr1 [1]; analogs of compound 87),Binding MST (Nurr1 [2]; analogs of compound 87),further results
"CC(C)(NC(=O)c1cc(Cl)cc(Cl)c1)c1cn(CCC(=O)O)nn1 [GWL 2.129, 3-(4-(2-(3,5-dichlorobenzamido)propan-2-yl)-1H-1,2,3-triazol-1-yl)propanoic acid]",+,–,–
"CC(C)(NC(=O)c1cc(Cl)cc(Cl)c1)c1cn(CC(=O)O)nn1 [GWL 2.131, 2-(4-(2-(3,5-dichlorobenzamido)propan-2-yl)-1H-1,2,3-triazol-1-yl)acetic acid]",+,–,–
"CC(C)(NC(=O)c1cc(Cl)cc(Cl)c1)c1cn(CCC(N)=O)nn1 [GWL 2.154, N-(2-(1-(3-amino-3-oxopropyl)-1H-1,2,3-triazol-4-yl)propan-2-yl)-3,5-dichlorobenzamide]",+,–,–
"CC(C)(NC(=O)c1cc(Cl)cc(Cl)c1)c1cn(-c2ccoc2)nn1 [GWL 3.001, 3,5-dichloro-N-(2-(1-(furan-3-yl)-1H-1,2,3-triazol-4-yl)propan-2-yl)benzamide]",+,–,–
"CC(C)(NC(=O)c1cc(Cl)cc(Cl)c1)c1cn(CC(N)=O)nn1 [GWL 3.008, N-(2-(1-(2-amino-2-oxoethyl)-1H-1,2,3-triazol-4-yl)propan-2-yl)-3,5-dichlorobenzamide]",+,+,–
"O=C(COc1ccc(Cl)c(Cl)c1)NCCc1ccc(O)c(O)c1 [SP 60, 2-(3,4-dichlorophenoxy)-N-(3,4-dihydroxyphenethyl)acetamide]",–,–,Binding MST (Nurr1 [2]; analogs of compound 85): +; Binding SPR (Nurr1 [1]; analogs of compound 85): +
"CCn1cc(C(C)(C)NC(=O)c2cc(Cl)cc(Cl)c2)nn1 [SP 65, 3,5-dichloro-N-(2-(1-ethyl-1H-1,2,3-triazol-4-yl)propan-2-yl)benzamide]",+,+,–
"O=C(COc1ccc(Cl)c(Cl)c1)NCc1ccc(O)c(O)c1 [SP 95, 2-(3,4-dichlorophenoxy)-N-(3,4-dihydroxybenzyl)acetamide]",–,–,Binding MST (Nurr1 [2]; analogs of compound 85): +; Binding SPR (Nurr1 [1]; analogs of compound 85): +
"CC(C)(NC(=O)c1cc(Cl)cc(Cl)c1)c1cn(Cc2ccccc2)nn1 [SP 98, N-(2-(1-benzyl-1H-1,2,3-triazol-4-yl)propan-2-yl)-3,5-dichlorobenzamide]",+,+,–
"CC(C)(NC(=O)c1cc(Cl)cc(Cl)c1)c1cn(CCc2ccccc2)nn1 [SP 99, 3,5-dichloro-N-(2-(1-phenethyl-1H-1,2,3-triazol-4-yl)propan-2-yl)benzamide]",+,+,–
"CC(C)(NC(=O)c1cc(Cl)cc(Cl)c1)c1cn(CCc2ccc(Cl)c(Cl)c2)nn1 [SP 100, 3,5-dichloro-N-(2-(1-(3,4-dichlorophenethyl)-1H-1,2,3-triazol-4-yl)propan-2-yl)benzamide]",+,–,–
"CC(C)(NCc1cc(Cl)cc(Cl)c1)c1cn(CCc2ccc(Cl)c(Cl)c2)nn1 [SP 136, N-(3,5-dichlorobenzyl)-2-(1-(3,4-dichlorophenethyl)-1H-1,2,3-triazol-4-yl)propan-2-amine]",+,+,–
"CC(C)(NC(=O)c1ccccc1)c1cn(CCc2ccc(Cl)c(Cl)c2)nn1 [SP 138, N-(2-(1-(3,4-dichlorophenethyl)-1H-1,2,3-triazol-4-yl)propan-2-yl)benzamide]",+,+,–
"CC(C)(NC(=O)c1ccc(Cl)c(Cl)c1)c1cn(CCc2ccc(Cl)c(Cl)c2)nn1 [SP 146, 3,4-dichloro-N-(2-(1-(3,4-dichlorophenethyl)-1H-1,2,3-triazol-4-yl)propan-2-yl)benzamide]",–,–,Binding SPR (Nurr1 [1]; analogs of compound 85): +
"CC(C)(NC(=O)c1cc(Cl)cc(Cl)c1)c1cn(CCc2ccc(Br)cc2)nn1 [SP 147, N-(2-(1-(4-bromophenethyl)-1H-1,2,3-triazol-4-yl)propan-2-yl)-3,5-dichlorobenzamide]",+,–,–
"CC(=O)SCCn1cc(C(C)(C)NC(=O)c2cc(Cl)cc(Cl)c2)nn1 [SP 151, S-2-(4-(2-(3,5-dichlorobenzamido)propan-2-yl)-1H-1,2,3-triazol-1-yl)ethyl ethanethioate]",–,–,fold induction at 10 µM (Vmat2 in MN9D): > 1.5
"CC(C)(NC(=O)c1cc(Cl)cc(Cl)c1)c1cnn(CCN)c1 [SP 155, N-(2-(1-(2-aminoethyl)-1H-pyrazol-4-yl)propan-2-yl)-3,5-dichlorobenzamide]",+,+,–
"CC(C)(NC(=O)c1cc(F)cc(F)c1)c1cn(CCS)nn1 [SP 158, 3,5-difluoro-N-(2-(1-(2-mercaptoethyl)-1H-1,2,3-triazol-4-yl)propan-2-yl)benzamide]",+,++,–
"C=CC(=O)n1cc(C(C)(C)NC(=O)c2cc(Cl)cc(Cl)c2)cn1 [SP 162, N-(2-(1-acryloyl-1H-pyrazol-4-yl)propan-2-yl)-3,5-dichlorobenzamide]",–,++,–
"CC(C)(NC(=O)c1cc(Cl)cc(Cl)c1)c1cn(CCSC(=O)c2ccccc2)nn1 [SP 164, S-2-(4-(2-(3,5-dichlorobenzamido)propan-2-yl)-1H-1,2,3-triazol-1-yl)ethyl benzothioate]",+,–,fold induction at 10 µM (Vmat2 in MN9D): > 4
"CC(C)(NC(=O)c1cc(Cl)cc(Cl)c1)c1cnn(COCC[Si](C)(C)C)c1 [SP 174, 3,5-dichloro-N-(2-(1-((2-(trimethylsilyl)ethoxy)methyl)-1H-pyrazol-4-yl)propan-2-yl)benzamide]",+,–,fold induction at 10 µM (Nurr1 in MN9D): > 4
"COc1ccc(Cn2cc(C(C)(C)NC(=O)c3cc(Cl)cc(Cl)c3)nn2)cc1 [SP 178, 3,5-dichloro-N-(2-(1-(4-methoxybenzyl)-1H-1,2,3-triazol-4-yl)propan-2-yl)benzamide]",–,+,–
CSSCCn1cc(C(C)(C)NC(=O)c2cc(Cl)cc(NC(C)=O)c2)nn1 [SP 183],+,+,–
"CC(=O)SCCn1cc(C(C)(C)NC(=O)c2cc(Cl)cc(Cl)c2)cn1 [SP 184, S-2-(4-(2-(3,5-dichlorobenzamido)propan-2-yl)-1H-pyrazol-1-yl)ethyl ethanethioate]",–,–,fold induction at 10 µM (Nurr1 in MN9D): > 4; fold induction at 10 µM (Vmat2 in MN9D): > 1.5
"COc1cc(OC)cc(C(=O)NC(C)(C)c2cn(CCS)nn2)c1 [SP 191, N-(2-(1-(2-mercaptoethyl)-1H-1,2,3-triazol-4-yl)propan-2-yl)-3,5-dimethoxybenzamide]",+,++,fold induction at 10 µM (Nurr1 in MN9D): > 4; fold induction at 10 µM (Vmat2 in MN9D): > 1.5
"COc1cc(OC)cc(C(=O)NC(C)(C)c2cn(CCSC(C)=O)nn2)c1 [SP 193, S-2-(4-(2-(3,5-dimethoxybenzamido)propan-2-yl)-1H-1,2,3-triazol-1-yl)ethyl ethanethioate]",–,–,fold induction at 10 µM (Vmat2 in MN9D): > 1.5
"CC(=O)SCCn1cc(C(C)(C)NC(=O)c2cnc3ccccc3c2)nn1 [SP 194, S-2-(4-(2-(quinoline-3-carboxamido)propan-2-yl)-1H-1,2,3-triazol-1-yl)ethyl ethanethioate]",–,–,fold induction at 10 µM (Nurr1 in MN9D): > 4; fold induction at 10 µM (Vmat2 in MN9D): > 1.5
"C=CC(=O)NNC(=O)COc1ccc(Cl)c(Cl)c1 [UNI6-001, N′-(2-(3,4-dichlorophenoxy)acetyl)acrylohydrazide]",–,–,Binding MST (Nurr1 [2]; analogs of compound 85): +
"C=CS(=O)(=O)NNC(=O)COc1ccc(Cl)c(Cl)c1 [UNI6-003, N′-(2-(3,4-dichlorophenoxy)acetyl)ethenesulfonohydrazide]",–,–,Binding MST (Nurr1 [2]; analogs of compound 85): +
